Assay results: patent US6734188B1, “Composition for treatment of constipation and irritable bowel syndrome” (priority 1999, dated 2004)

What was measured:
[1] = system: healthy, non-smoking volunteers; experiment: Gut transit time study with radio opaque markers, oral naloxone with or without oral codeine (Example 1); assay type: in vivo, human; details: for Gut transit time, Maximum / Gut transit time, Mean / Gut transit time, Median / Gut transit time, Minimum: codeine 30 mg bd
Method: The study consisted of four 10-day study periods, with at least two weeks between each, which were in a randomised order and the capsules being administered daily in a double blind manner. […] The capsules were administered twice a day (“bd”).
The study protocol was as follows: On day 0, subjects were given capsule B and on days 1 to 9, were given capsules A and B. On days 3 to 6, the subjects took transit markers; packaged in distinctly coloured capsules, each containing 20 different shaped radio opaque marker pellets (Dunn Clinical Nutrition). From day 7, the subjects' next two bowel motions were collected. A normal diet was adhered to throughout the study period and recorded on days 3 to 6.

[2] = after parenteral administration; cited from earlier work
[3] = system: patients with advanced cancer; details: patients with advanced cancer treated with an opioid analgesic; cited from earlier work
male volunteers = experiment: Gut transit time study, fixed doses of naloxone with or without codeine (Example 2); assay type: in vivo, human; details: naloxone 5, 10 and 20 mg bd, Gelucire 53/10:42/12 95:5, Eudragit LS coated; with 30 mg bd codeine in second week
Method: In a further study, the procedure of Example 1 was substantially followed using Gelucire™ 53/10 & Gelucire™ 42/12 95:5 as the polyglycolised glyceride matrix.
The gut transit time was measured at the end of the first week. During the second week, each volunteer was also given 30 mg bd codeine and gut transit times measured again at the end of the second week.

[4] = system: patient with Irritable Bowel Syndrome; details: administered intermittently, similar dosage form to Example 3
[5] = in vivo; cited from earlier work
[6] = 8 patients whose transit time was increased by codeine (n = 8), naloxone 10 mg bd
[7] = all patients (n = 12), oral capsules twice a day, naloxone 10 mg bd
[8] = all patients (n = 12), oral capsules twice a day, naloxone 10 mg bd (Gelucire 50/13:42/12 82.5:17.5, enteric coated)

SMILES	Gut transit time, Maximum [1, 6]	Gut transit time, Mean [1, 6]	Gut transit time, Median [1, 6]	Gut transit time, Minimum [1, 6]	Gut transit time, Maximum [1, 7]	Gut transit time, Mean [1, 7]	Gut transit time, Median [1, 7]	Gut transit time, Minimum [1, 8]	Plasma half-life [2]	Laxative effect [3]	Effect on gut transit time (in words) (male volunteers)	Clinical outcome in irritable bowel syndrome [4]	Effect on gut transit time (in words) ([1]; Example 1, naloxone 10 mg bd alone or with codeine 30 mg bd)	Crossing of the blood-brain barrier [5]
COc1ccc2c3c1O[C@H]1[C@@H](O)C=C[C@H]4[C@@H](C2)N(C)CC[C@@]341 [Codeine, codeine phosphate]	84.00 h	66.17 h	67.85 h	50.42 h	84.00 h	57.27 h	56.76 h	25.22 h						
C=CCN1CC[C@]23c4c5ccc(O)c4O[C@H]2C(=O)CC[C@@]3(O)[C@H]1C5 [Naloxone, 17-allyl-6-deoxy-7,8-dihydro-14-hydroxy-6-oxonormorphine]	63.91 h	41.41 h	37.95 h	27.40 h	63.91 h	42.13 h	38.85 h	27.40 h	about 1 h	produce a laxative effect	accelerate gut transit time	substantial clinical benefit	reduced gut transit time	
C[N@+]1(CC2CC2)CC[C@]23c4c5ccc(O)c4O[C@H]2C(=O)CC[C@@]3(O)[C@H]1C5 [methylnaltrexone]														do not cross the blood-brain barrier to a significant extent
